# According to PMC7031741 (Journal of Ginseng Research, 2018):
# Molecular target: ABCB1 (P-glycoprotein, P-gp) (Homo sapiens, UniProt P08183)
# Assay: Pgp-Glo ATPase assay: inhibition of verapamil-stimulated ABCB1 ATPase
# Format: biochemical
# Chain of ABCB1 (P-glycoprotein, P-gp) (P08183 whole entry): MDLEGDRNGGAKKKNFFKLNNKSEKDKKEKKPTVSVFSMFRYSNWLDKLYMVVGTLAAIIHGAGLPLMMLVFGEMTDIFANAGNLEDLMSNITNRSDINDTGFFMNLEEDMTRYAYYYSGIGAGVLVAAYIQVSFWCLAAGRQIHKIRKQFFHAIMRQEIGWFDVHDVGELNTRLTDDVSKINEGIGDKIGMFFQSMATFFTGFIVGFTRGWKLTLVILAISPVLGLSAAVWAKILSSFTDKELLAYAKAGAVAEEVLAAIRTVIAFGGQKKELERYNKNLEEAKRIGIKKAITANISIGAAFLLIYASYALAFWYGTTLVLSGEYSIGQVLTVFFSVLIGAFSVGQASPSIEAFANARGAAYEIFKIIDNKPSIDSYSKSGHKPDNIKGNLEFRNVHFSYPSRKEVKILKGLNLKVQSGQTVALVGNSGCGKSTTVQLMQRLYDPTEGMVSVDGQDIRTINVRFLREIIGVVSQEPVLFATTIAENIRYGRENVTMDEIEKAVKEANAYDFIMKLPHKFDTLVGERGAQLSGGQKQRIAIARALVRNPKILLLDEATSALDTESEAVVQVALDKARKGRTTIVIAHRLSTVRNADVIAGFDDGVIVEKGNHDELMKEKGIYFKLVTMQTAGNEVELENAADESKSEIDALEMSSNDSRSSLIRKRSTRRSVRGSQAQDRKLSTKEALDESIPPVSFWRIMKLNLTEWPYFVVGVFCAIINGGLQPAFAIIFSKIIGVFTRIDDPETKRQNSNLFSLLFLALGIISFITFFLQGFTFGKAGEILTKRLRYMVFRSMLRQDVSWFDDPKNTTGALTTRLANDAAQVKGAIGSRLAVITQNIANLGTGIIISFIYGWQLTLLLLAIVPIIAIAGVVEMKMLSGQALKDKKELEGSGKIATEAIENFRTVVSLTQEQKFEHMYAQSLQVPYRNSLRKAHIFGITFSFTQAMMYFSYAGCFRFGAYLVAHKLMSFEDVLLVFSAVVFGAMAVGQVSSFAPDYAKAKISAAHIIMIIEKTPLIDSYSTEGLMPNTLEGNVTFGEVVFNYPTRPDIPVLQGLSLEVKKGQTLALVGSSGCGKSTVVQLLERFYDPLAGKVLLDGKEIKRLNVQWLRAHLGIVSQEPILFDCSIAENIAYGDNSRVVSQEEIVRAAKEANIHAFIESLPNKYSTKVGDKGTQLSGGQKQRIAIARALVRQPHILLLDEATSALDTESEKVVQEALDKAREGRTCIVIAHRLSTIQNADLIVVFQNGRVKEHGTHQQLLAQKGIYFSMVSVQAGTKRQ
smiles,measurement,value
"CC(C)=CC/C=C(\C)[C@H]1CC[C@]2(C)[C@@H]1[C@H](O)C[C@@H]1[C@@]3(C)CC[C@H](O[C@@H]4O[C@H](CO)[C@@H](O)[C@H](O)[C@H]4O[C@@H]4O[C@H](CO)[C@@H](O)[C@H](O)[C@H]4O)C(C)(C)[C@@H]3CC[C@]12C [Rg5, Ginsenoside Rg5]",IC50,9.16 µM
